{"source": "paper PMC4204381", "about": "(Computational and Structural Biotechnology Journal, 2014)", "key": {"Male Sprague–Dawley rats [1]": {"tested_on": "Male Sprague–Dawley rats", "format": "in vivo, rat", "details": "p < 0.05; for Oleoylcarnitine blood level vs control: Fig. 4A; for Palmitoylcarnitine blood level vs control: Fig. 4B; for LysoPC(20:1) blood level vs control: Fig. 4C"}, "Male Sprague–Dawley rats [2]": {"tested_on": "Male Sprague–Dawley rats", "assay": "Histopathology and tissue observations in rats after a single oral dose", "details": "for hepatic vacuolization / hepatic necrosis: low and high doses, 6 or 24 h"}, "patients": {"tested_on": "patients", "details": "cited from earlier work"}, "Male Sprague–Dawley rats [3]": {"tested_on": "Male Sprague–Dawley rats", "assay": "Clinical chemistry", "details": "for clinical chemistry changes (ALT, AST, ALP): low dose, 6 or 24 h"}}, "note": "Like-named read-outs stand apart in the source and are kept apart here.", "data": [{"smiles": "CC(=O)Nc1ccc(O)cc1", "note": "[APAP, acetaminophen]", "values": [{"measurement": "Oleoylcarnitine blood level vs control", "setting": "Male Sprague–Dawley rats [1]; 6 h", "value": "significantly increased"}, {"measurement": "Palmitoylcarnitine blood level vs control", "setting": "Male Sprague–Dawley rats [1]; 6 h", "value": "significantly increased"}, {"measurement": "LysoPC(20:1) blood level vs control", "setting": "Male Sprague–Dawley rats [1]; 6 h", "value": "significantly decreased"}, {"measurement": "Oleoylcarnitine blood level vs control", "setting": "Male Sprague–Dawley rats [1]; 24 h", "value": "significantly increased"}, {"measurement": "Palmitoylcarnitine blood level vs control", "setting": "Male Sprague–Dawley rats [1]; 24 h", "value": "appeared to be increased"}, {"measurement": "LysoPC(20:1) blood level vs control", "setting": "Male Sprague–Dawley rats [1]; 24 h", "value": "appeared to be decreased"}]}, {"smiles": "O=C1CN(/N=C/c2ccc(-c3ccc([N+](=O)[O-])cc3)o2)C(O)=N1", "note": "[DAN, dantrolene]", "values": [{"measurement": "hepatic vacuolization / hepatic necrosis", "setting": "Male Sprague–Dawley rats [2]", "value": "neither hepatic vacuolization nor hepatic necrosis"}, {"measurement": "incidence of hepatotoxicity", "setting": "patients; patients", "value": 0.35, "unit": "%"}, {"measurement": "Palmitoylcarnitine blood level vs control", "setting": "Male Sprague–Dawley rats [1]; 6 h", "value": "significantly increased"}, {"measurement": "LysoPC(20:1) blood level vs control", "setting": "Male Sprague–Dawley rats [1]; 24 h", "value": "significantly decreased"}]}, {"smiles": "NC(=O)OCC(COC(N)=O)c1ccccc1", "note": "[FEL, felbamate]", "values": [{"measurement": "clinical chemistry changes (ALT, AST, ALP)", "setting": "Male Sprague–Dawley rats [3]", "value": "did not have any clinical chemistry changes"}, {"measurement": "hepatic vacuolization / hepatic necrosis", "setting": "Male Sprague–Dawley rats [2]", "value": "neither hepatic vacuolization nor hepatic necrosis"}, {"measurement": "LysoPC(20:1) blood level vs control", "setting": "Male Sprague–Dawley rats [1]; 6 h", "value": "significantly decreased"}, {"measurement": "Palmitoylcarnitine blood level vs control", "setting": "Male Sprague–Dawley rats [1]; 24 h", "value": "appeared to be increased"}, {"measurement": "LysoPC(20:1) blood level vs control", "setting": "Male Sprague–Dawley rats [1]; 24 h", "value": "significantly decreased"}]}, {"smiles": "Cc1cnc(NC(=O)C2=C(O)c3ccccc3S(=O)(=O)N2C)s1", "note": "[MEL, meloxicam]", "values": [{"measurement": "ALT increase of the ALT value of the control group", "setting": "Male Sprague–Dawley rats [3]; 24 h, high dose group", "value": "< 2", "unit": "fold"}, {"measurement": "hepatic vacuolization / hepatic necrosis", "setting": "Male Sprague–Dawley rats [2]", "value": "neither hepatic vacuolization nor hepatic necrosis"}, {"measurement": "inflammation in the capsule of kidney (incidence)", "setting": "Male Sprague–Dawley rats [2]; rats treated with MEL for 24 h", "value": "1 out of 5"}, {"measurement": "inflammation in the capsule of liver (incidence)", "setting": "Male Sprague–Dawley rats [2]; rats treated with MEL for 24 h", "value": "2 out of 5"}, {"measurement": "Palmitoylcarnitine blood level vs control", "setting": "Male Sprague–Dawley rats [1]; 6 h", "value": "significantly increased"}, {"measurement": "LysoPC(20:1) blood level vs control", "setting": "Male Sprague–Dawley rats [1]; 24 h", "value": "appeared to be decreased"}]}, {"smiles": "CN(C)C(=N)N=C(N)N", "note": "[MET, metformin]", "values": [{"measurement": "ALT increase of ALT value in control group", "setting": "Male Sprague–Dawley rats [3]; 6 h, high dose", "value": "< 3", "unit": "fold"}, {"measurement": "clinical chemistry changes (ALT, AST, ALP)", "setting": "Male Sprague–Dawley rats [3]", "value": "did not have any clinical chemistry changes"}, {"measurement": "hepatic vacuolization / hepatic necrosis", "setting": "Male Sprague–Dawley rats [2]", "value": "neither hepatic vacuolization nor hepatic necrosis"}, {"measurement": "cases of liver injury reported to be associated with MET", "setting": "patients; by 2012, concomitant intake of other potential hepatotoxicants", "value": "< 10", "unit": "cases"}, {"measurement": "Oleoylcarnitine blood level vs control", "setting": "Male Sprague–Dawley rats [1]; 6 h", "value": "significantly increased"}, {"measurement": "Taurocholic acid blood level vs control", "setting": "Male Sprague–Dawley rats [1]; 6 h, Fig. 4D", "value": "significantly decreased"}]}, {"smiles": "Nc1c2c(nc3ccccc13)CCCC2", "note": "[tacrine]", "values": [{"measurement": "ALT increase with no liver cell injury", "setting": "patients; human, in vivo", "value": "> 20 fold of the upper limit of normal"}]}]}
